Measured values as given in publication PMC6774072, “Azologization and repurposing of a hetero-stilbene-based kinase inhibitor: towards the design of photoswitchable sirtuin inhibitors” (Beilstein Journal of Organic Chemistry, 2019).

Experiments:
[1] = isomer composition of 11 at thermal equilibrium and photostationary states, HPLC with UV–vis detection at the isosbestic points; type: physicochemical
Description: The photoisomerization could be reversed by exposure to visible light, i.e. 452 nm, albeit the PSS at 452 nm still comprised about 25% of (Z)-11 as determined by HPLC analysis using UV–vis detection at the isosbestic points (Table 2). Light of 500 nm could also reverse photoisomerization, but was not as effective as 452 nm radiation. […] Switching between the two PSS could be repeated several times without any observable fatigue of the compound (Figure 5).
Photochemistry: All photoisomerization experiments were conducted under ruby light of 630 nm. Illumination was executed using a Bio-Link 254 Crosslinker from Vilber-Lourmat equipped with six Vilber-Lourmat T8-C lamps (8 W, 254 nm) or six Vilber-Lourmat T8-L lamps (8W, 365 nm), respectively. Visible light radiation of 630 nm (red), 500 nm (green) and 452 nm (blue) was derived from a Paulmann FlexLED 3D strip. All compounds were irradiated in solution, using spectrophotometric grade solvents. Photoisomerization and UV–vis spectra measurement was conducted in quartz cuvettes at room temperature. […]
of 11 (1 mM) were injected before and after 5 minutes of 365 nm or 1 minute of 452 nm irradiation. Isocratic elution with 60% MeOH and 40% water (+ 0.1% HCOOH) for 12 minutes at 1 mL∙min−1 was applied and gave complete separation of the isomers. Integration of the peak areas at the isosbestic points (λobs = 244 nm and 270 nm) gave the relative percentage of (E)-11 and (Z)-11, respectively (Figure S5).
Table S1. Isomer composition ((E)-11 / (Z)-11) at the thermal equilibrium (∆) and the PSS after 5 minutes of 365 nm and 1 minute of 452 nm radiation. […]

[2] = PSS thermal half-life of 11 by UV/Vis spectroscopy; type: physicochemical; conditions: PSS after 365 nm irradiation; 50 µM in 5% DMSO (v/v) in enzyme assay buffer
Procedure: PSS thermal half-life of 11
The thermal half-life of 11 after 5 minutes of 365 nm irradiation was determined by UV/Vis-spectroscopy. Therefore, a 50 µM solution of 11 in 5% DMSO (v/v) in enzyme assay buffer was prepared and an initial spectrum of the thermal equilibrium recorded. After 5 minutes of irradiation with 365 nm the increase of absorbance at the thermal equilibrium maximum ( λ = 324 nm) was followed over a period of 96 hours (Figure S6). Absorbance at 324 nm was plotted as a function of time. A non-linear regression yielded the half-live of the PSS. Due to the slow rate of thermal isomerization only a short period could be measured. Therefore the limit value was set to 0.939 as this was the absorbance at 324 nm of 11 at the thermal […]
Figure S6: 11 (50 µM) in 5% DMSO (v/v) in enzyme assay buffer after 5 minutes of 365 nm irradiation. Absorbance at 324 nm of plotted as a function of time with non-linear fit (red line).
(1 picture or pasted object on this page, not shown here)
Table S2: Non-linear fit of measured values.

Q: Which “percentage of (Z)-11 in PSS” value ([1]; 365 nm irradiation) does the source give for `NC(=O)c1cncc(N=Nc2ccc(F)cc2)c1` [Compound 11, 5-[(4-Fluorophenyl)diazenyl]nicotinamide] here?
A: The value was 84%.

Q: What about the “percentage of (Z)-11 in PSS” value ([1]; 452 nm irradiation, HPLC, UV–vis detection at isosbestic points) of the same compound?
A: The value was “about 25%”.

Q: And the “Isomer composition ((E)-11 / (Z)-11)” value ([1]; PSS (365 nm), 5 minutes, λobs 244 nm)?
A: The value was 17 / 83.

Q: And the “Isomer composition ((E)-11 / (Z)-11)” value ([1]; PSS (365 nm), 5 minutes, λobs 270 nm)?
A: The value was 16 / 84.

Q: What about the “Isomer composition ((E)-11 / (Z)-11)” value ([1]; PSS (452 nm), 1 minute, λobs 244 nm) of the same compound?
A: Its value is 76 / 24.

Q: What about the “Isomer composition ((E)-11 / (Z)-11)” value ([1]; PSS (452 nm), 1 minute, λobs 270 nm) of the same compound?
A: Its value is 74 / 26.

Q: What about the “Isomer composition ((E)-11 / (Z)-11)” value ([1]; thermal equilibrium (∆), λobs 244 nm) of the same compound?
A: The value was 98 / 2.

Q: And the “Isomer composition ((E)-11 / (Z)-11)” value ([1]; thermal equilibrium (∆), λobs 270 nm)?
A: The value was 99 / 1.

Q: What about the “t½ of PSS (thermal)” value [2] of the same compound?
A: The value was 12.5 days.

Q: And the melting point?
A: Its melting point is 212.3 °C.
